Results as given in patent US20100255089A1, “Pharmaceutical Compositions and Methods of Using Same” (priority 2006, published 2010).

Assay: physchem
Conditions: simulated gastric fluid
Experimental: In an uncapped vial, one part of the compound of Formula I is mixed with three, four, six, or nine parts polyvinylpyrrolidone (PVP-25/Kollidon 25), respectively. The mixture is dissolved in a sufficient amount of a mixture of acetone and ethanol, until all powders were in solution. The uncapped vial is placed into a vacuum oven set at 40° C., and let dry for at least 24 hours.
After that treatment, an amorphous state of the powder is achieved, which could be identified, e.g. by X-ray diffraction measurements or by determination of the solubility.

Compound `Cc1cc(C)c2c3ccccc3n(Cc3ccc([C@@H](C(=O)N[C@@H](CO)c4ccccc4)C4CCCC4)cc3)c2n1` [compound of Formula I, (2S)-2-cyclopentyl-2-(4-((2,4-dimethyl-9H-pyrido(2,3-B)indol-9-yl)methyl)-phenyl)-N-((1R)-2-hydroxy-1-phenylethyl)acetamide] has a solubility of 0.1 µg/mL.
